Values quoted from earlier work as cited in patent publication US20080207644A1, “Therapeutic materials and methods” (priority 2006, published 2008).

Assays:
cancers = conditions: for mouth sores as side effect: human studies; for results in human studies: single agents or combinations, treatment of a variety of cancers
[1] = oral doses of 10-100 mg/kg
[2] = 30 mg/kg oral
[3] = system: a variety of malignancies; conditions: intravenous 0.7 to 1.3 mg/m^2/dose biweekly

Structure (SMILES)	mouth sores as side effect (cancers)	results in human studies (cancers)	also measured
CO[C@H]1C[C@@H]2CC[C@@H](C)[C@@](O)(O2)C(=O)C(=O)N2CCCC[C@H]2C(=O)O[C@H]([C@H](C)C[C@@H]2CC[C@@H](OP(C)(C)=O)[C@H](OC)C2)CC(=O)[C@H](C)/C=C(\C)[C@@H](O)[C@@H](OC)C(=O)[C@H](C)C[C@H](C)/C=C/C=C/C=C/1C [AP23573]	dose limiting toxicity	positive results	
Cc1ccc2nc(NCCN)c3ncc(C)n3c2c1 [BMS-345541]			efficacy in mouse studies [1]: effective
COc1cccc2nc(-c3cccs3)nc(NN3C(=O)CC(C)C3=O)c12 (stereo not drawn) [SPC-839]			oral efficacy in a rat model [2]: oral efficacy
CC(C)C[C@H](NC(=O)[C@H](Cc1ccccc1)NC(=O)c1cnccn1)B(O)O [Velcade]			activity against malignancies [3]: activities against a variety of malignancies
CO[C@H]1C[C@@H]2CC[C@@H](C)[C@@](O)(O2)C(=O)C(=O)N2CCCC[C@H]2C(=O)O[C@H]([C@H](C)C[C@@H]2CC[C@@H](OCCO)[C@H](OC)C2)CC(=O)[C@H](C)/C=C(\C)[C@@H](O)[C@@H](OC)C(=O)[C@H](C)C[C@H](C)/C=C/C=C/C=C/1C [everolimus]	dose limiting toxicity	positive results	
CO[C@H]1C[C@@H]2CC[C@@H](C)[C@@](O)(O2)C(=O)C(=O)N2CCCC[C@H]2C(=O)O[C@H]([C@H](C)C[C@@H]2CC[C@@H](OC(=O)C(C)(CO)CO)[C@H](OC)C2)CC(=O)[C@H](C)/C=C(\C)[C@@H](O)[C@@H](OC)C(=O)[C@H](C)C[C@H](C)/C=C/C=C/C=C/1C [temsirolimus]	dose limiting toxicity	positive results	
